The values below come from patent US20180338980A1, “AROMATIC SULFONAMIDE DERIVATIVES” (BAYER PHARMA AKTIENGESELLSCHAFT, priority 2015, published 2018).

In general, IC50 refers to the concentration that inhibits the measured activity by half.

The target of test [1] is T1, P2X4 (Homo sapiens, UniProt Q99571).
T1 sequence (Q99571 1-388): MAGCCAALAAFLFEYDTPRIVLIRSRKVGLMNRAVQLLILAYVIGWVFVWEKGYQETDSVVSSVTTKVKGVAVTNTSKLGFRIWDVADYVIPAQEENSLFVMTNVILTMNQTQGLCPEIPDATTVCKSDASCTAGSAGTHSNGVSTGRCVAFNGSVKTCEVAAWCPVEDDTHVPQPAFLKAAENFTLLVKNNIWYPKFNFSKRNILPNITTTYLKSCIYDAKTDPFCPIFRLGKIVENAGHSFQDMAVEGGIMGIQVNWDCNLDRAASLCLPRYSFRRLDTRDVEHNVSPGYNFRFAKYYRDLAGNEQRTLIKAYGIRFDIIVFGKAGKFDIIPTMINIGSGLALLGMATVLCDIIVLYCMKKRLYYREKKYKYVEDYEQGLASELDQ
Nature of the test: Assay A: human P2X4 receptor cell line, FLIPR calcium assay (Fluo-8, agonist Bz-ATP at EC80). It is filed as cell-based. Details: host or cells: HEK 293 (recombinant, constitutively expressing; with mitochondrial photina in Assay B). The note with it: for IC50: Bz-ATP at EC80, average values; for Emax: read-out: human P2X4 Assay A avg Efficacy. The gist of the method:
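Antagonism read as inhibition of the calcium response to EC80 Bz-ATP, by peak-over-basal Fluo-8 fluorescence over 120 s, normalized to DMSO wells. Human P2X4-HEK cells, dye-loaded 30 min in probenecid-containing HBSS/HEPES pH 7.4, received compound 30 min beforehand at room temperature, 0.5% DMSO final. Triplicates fitted for IC50, maximal inhibition and Hill slope.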

The target in test [2] is T1, P2X4. Nature of the test: Assay B: human P2X4 receptor cell line, mitochondrial photina luminescence (agonist Bz-ATP at EC50). It is filed as cell-based. Details: host or cells: HEK 293 (recombinant, constitutively expressing; with mitochondrial photina in Assay B). The settings on record: for Emax: read-out: human P2X4 Assay B avg Efficacy. In outline: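 Bz-ATP at its EC50 activates human P2X4 stably expressed in a cell line that also carries the calcium-sensitive photoprotein mitochondrial photina (coelenterazine cofactor). Light emitted on calcium influx is measured straight away in a luminometer. Reduced luminescence indicates antagonism.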

[3] abbreviates: HEK human P2X4 cells, Fluo-8 FLIPR.
[4] abbreviates: percentage of maximal inhibition, HEK human P2X4 cells, Fluo-8 FLIPR.
[5] abbreviates: HEK human P2X4 cell line, photina luminescence, agonist Bz-ATP at EC50, average.

Turning to `NS(=O)(=O)c1cc(NC(=O)Cc2ccc(C(F)F)cc2)ccc1Oc1ccc(Cl)cc1` [Example 234, N-[4-(4-Chlorophenoxy)-3-sulfamoylphenyl]-2-[4-(difluoromethyl)phenyl]acetamide], the results for the concentration for half-maximal inhibition (IC50) on P2X4 [1] (setting [3]) and at P2X4 [2] (setting [5]) were 0.562 µM and 0.695 µM, respectively. Also, the values for the Emax on P2X4 [1] (setting [4]) and on P2X4 [2] (setting [5]) were 73% and 43%, respectively.

With `NS(=O)(=O)c1cc(NC(=O)Cc2ccccc2Cl)ccc1OCC1CCC1` [Example 157, 2-(2-Chlorophenyl)-N-[4-(cyclobutylmethoxy)-3-sulfamoylphenyl]acetamide], the results for the Emax at P2X4 [1] (setting [4]) and on P2X4 [2] (setting [5]) were 67% and 55%, respectively.

In the case of `CC(C(=O)Nc1ccc(Oc2cccc(Cl)c2)c(S(N)(=O)=O)c1)c1ccccc1Cl` (stereo not shown) [Example 196, N-[4-(3-Chlorophenoxy)-3-sulfamoylphenyl]-2-(2-chlorophenyl)propanamide], the Emax on P2X4 [1] is 82%; on P2X4 [2], 71%.

As for `CC(Oc1ccc(NC(=O)Cc2ccccc2Cl)cc1S(N)(=O)=O)c1ccccc1` (single isomer, unassigned) [Example 148A, 2-(2-Chlorophenyl)-N-[4-(1-phenylethoxy)-3-sulfamoylphenyl]acetamide], the IC50 at P2X4 [1] (setting [3]) is 0.074 µM; at P2X4 [2] (setting [5]) it was 0.143 µM. The values for the Emax at P2X4 [1] (setting [4]) and on P2X4 [2] (setting [5]) were 92% and 68%, respectively.

On to `NS(=O)(=O)c1cc(NC(=O)Cc2ccccc2Cl)ccc1Oc1cccc(C(=O)N2CCOCC2)c1` [Example 052, 2-(2-Chlorophenyl)-N-{4-[3-(morpholin-4-ylcarbonyl)phenoxy]-3-sulfamoylphenyl}acetamide], for which the Emax turned out to be 85% at P2X4 [1] (setting [4]) and 66% at P2X4 [2] (setting [5]).

`NS(=O)(=O)c1cc(NC(=O)Cc2ccccc2Cl)ccc1Oc1ccc(C2CCC(=O)N2)cc1` (stereo not shown) [Example 062, 2-(2-Chlorophenyl)-N-{4-[4-(5-oxopyrrolidin-2-yl)phenoxy]-3-sulfamoylphenyl}acetamide]: the half-maximal inhibitory concentration (IC50) on P2X4 [1] (setting [3]) was determined as 0.56 µM; at P2X4 [2] (setting [5]), 0.455 µM. Moreover, the Emax on P2X4 [1] (setting [4]) is 95%; on P2X4 [2] (setting [5]), 70%.

Turning to `COc1ccccc1Oc1ccc(NC(=O)Cc2ccccc2Cl)cc1S(N)(=O)=O` [Example 032, 2-(2-Chlorophenyl)-N-[4-(2-methoxyphenoxy)-3-sulfamoylphenyl]acetamide], the half-inhibitory concentration (IC50) at P2X4 [1] (setting [3]) was 0.014 µM; on P2X4 [2] (setting [5]), 0.057 µM. Also, the figures for the Emax on P2X4 [1] (setting [4]) and on P2X4 [2] (setting [5]) were 100% and 82%, respectively.

On to `NS(=O)(=O)c1cc(NC(=O)Cc2ccccc2Cl)ccc1Oc1cccc(N2CCCC2=O)c1` [Example 050, 2-(2-Chlorophenyl)-N-{4-[3-(2-oxopyrrolidin-1-yl)phenoxy]-3-sulfamoylphenyl}acetamide], for which the results for the IC50 at P2X4 [1] (setting [3]) and on P2X4 [2] (setting [5]) were 0.005 µM and 0.112 µM, respectively. Moreover, the Emax on P2X4 [1] (setting [4]) stood at 94%; on P2X4 [2] (setting [5]) it was 87%.

`NS(=O)(=O)c1cc(NC(=O)Cc2ccccc2Cl)ccc1OCC1CCCOC1` (stereo not shown) [Example 165, 2-(2-Chlorophenyl)-N-[3-sulfamoyl-4-(tetrahydro-2H-pyran-3-ylmethoxy)phenyl]acetamide]: the IC50 at P2X4 [1] (setting [3]) is 0.162 µM; on P2X4 [2] (setting [5]) it was 0.097 µM. The Emax at P2X4 [1] (setting [4]) was determined as 59%; on P2X4 [2] (setting [5]) it was 43%.

For the molecule `Cc1ccc(CC(=O)Nc2ccc(Oc3cccc(Cl)c3)c(S(N)(=O)=O)c2)c(Cl)c1` [Example 095, 2-(2-Chloro-4-methylphenyl)-N-[4-(3-chlorophenoxy)-3-sulfamoylphenyl]acetamide], the IC50 is 0.137 µM at P2X4 [1] (setting [3]) and 0.099 µM at P2X4 [2] (setting [5]). Besides, the Emax at P2X4 [1] (setting [4]) was 64%; on P2X4 [2] (setting [5]), 63%.

Regarding `NS(=O)(=O)c1cc(NC(=O)Cc2ccccc2Cl)ccc1Oc1cccc(N2CCOCC2=O)c1` [Example 173, 2-(2-Chlorophenyl)-N-{4-[3-(3-oxomorpholin-4-yl)phenoxy]-3-sulfamoylphenyl}acetamide], the Emax on P2X4 [1] (setting [4]) is 100%; on P2X4 [2] (setting [5]), 92%.

`NS(=O)(=O)c1cc(NC(=O)Cc2ccccc2Cl)ccc1Oc1cccc(N2CCCCC2=O)c1` [Example 176, 2-(2-Chlorophenyl)-N-{4-[3-(2-oxopiperidin-1-yl)phenoxy]-3-sulfamoylphenyl}acetamide]: the IC50 on P2X4 [1] (setting [3]) was 0.459 µM; at P2X4 [2] (setting [5]) it was 0.88 µM. In addition, the Emax turned out to be 82% on P2X4 [1] (setting [4]) and 53% at P2X4 [2] (setting [5]).

In the case of `NS(=O)(=O)c1cc(NC(=O)Cc2ccccc2Cl)ccc1Oc1cccc(-n2cnnc2)c1` [Example 020, 2-(2-Chlorophenyl)-N-{3-sulfamoyl-4-[3-(4H-1,2,4-triazol-4-yl)phenoxy]phenyl}acetamide], the results for the Emax on P2X4 [1] (setting [4]) and at P2X4 [2] (setting [5]) were 90% and 96%, respectively.

With `NS(=O)(=O)c1cc(NC(=O)Cc2ccc(C(F)(F)F)cc2Cl)ccc1Oc1cccc(Cl)c1` [Example 135, N-[4-(3-Chlorophenoxy)-3-sulfamoylphenyl]-2-[2-chloro-4-(trifluoromethyl)phenyl]acetamide], the IC50 is 0.631 µM at P2X4 [1] (setting [3]) and 0.87 µM on P2X4 [2] (setting [5]). Besides, the results for the Emax at P2X4 [1] (setting [4]) and at P2X4 [2] (setting [5]) were 75% and 45%, respectively.

Take `NS(=O)(=O)c1cc(NC(=O)Cc2ccccc2Cl)ccc1OCc1ccccn1` [Example 150, 2-(2-Chlorophenyl)-N-[4-(pyridin-2-ylmethoxy)-3-sulfamoylphenyl]acetamide]: the Emax at P2X4 [1] (setting [4]) was 96%; on P2X4 [2] (setting [5]) it was 79%.

Regarding `CC(C)(O)c1cccc(Oc2ccc(NC(=O)Cc3ccccc3Cl)cc2S(N)(=O)=O)c1` [Example 274, 2-(2-Chlorophenyl)-N-{4-[3-(2-hydroxypropan-2-yl)phenoxy]-3-sulfamoylphenyl}acetamide], the Emax was 104% on P2X4 [1] (setting [4]) and 64% on P2X4 [2] (setting [5]).

For the molecule `Cc1cccc(Cl)c1CC(=O)Nc1ccc(Oc2cccc(Cl)c2)c(S(N)(=O)=O)c1` [Example 096, 2-(2-Chloro-6-methylphenyl)-N-[4-(3-chlorophenoxy)-3-sulfamoylphenyl]acetamide], the IC50 amounted to 0.078 µM at P2X4 [1] (setting [3]) and 0.027 µM at P2X4 [2] (setting [5]). The values for the Emax at P2X4 [1] (setting [4]) and at P2X4 [2] (setting [5]) were 72% and 59%, respectively.

`CS(=O)(=O)c1cccc(COc2ccc(NC(=O)Cc3ccccc3Cl)cc2S(N)(=O)=O)c1` [Example 136, 2-(2-Chlorophenyl)-N-(4-{[3-(methylsulfonyl)benzyl]oxy}-3-sulfamoylphenyl)acetamide]: the concentration for half-maximal inhibition (IC50) on P2X4 [1] (setting [3]) was 0.01 µM; on P2X4 [2] (setting [5]), 0.102 µM. Further, the results for the Emax on P2X4 [1] (setting [4]) and on P2X4 [2] (setting [5]) were 90% and 83%, respectively.

In the case of `COc1cccc(Oc2ccc(NC(=O)Cc3ccccc3Cl)cc2S(N)(=O)=O)c1` [Example 022, 2-(2-Chlorophenyl)-N-[4-(3-methoxyphenoxy)-3-sulfamoylphenyl]acetamide], the Emax on P2X4 [1] (setting [4]) came out at 87%; at P2X4 [2] (setting [5]) it was 54%.

Take `Cc1ccc(Cl)c(CC(=O)Nc2ccc(Oc3cccc(Cl)c3)c(S(N)(=O)=O)c2)c1` [Example 097, 2-(2-Chloro-5-methylphenyl)-N-[4-(3-chlorophenoxy)-3-sulfamoylphenyl]acetamide]: the values for the IC50 on P2X4 [1] (setting [3]) and on P2X4 [2] (setting [5]) were 0.119 µM and 0.123 µM, respectively. Besides, the Emax was determined as 84% at P2X4 [1] (setting [4]) and 78% on P2X4 [2] (setting [5]).

As for `Cc1ccc(Br)c(Cl)c1CC(=O)Nc1ccc(Oc2cccc(Cl)c2)c(S(N)(=O)=O)c1` [Example 132, 2-(3-Bromo-2-chloro-6-methylphenyl)-N-[4-(3-chlorophenoxy)-3-sulfamoylphenyl]acetamide], the results for the IC50 on P2X4 [1] (setting [3]) and on P2X4 [2] (setting [5]) were 0.541 µM and 0.64 µM, respectively. Besides, the Emax was determined as 72% on P2X4 [1] (setting [4]) and 102% at P2X4 [2] (setting [5]).

On to `NS(=O)(=O)c1cc(NC(=O)Cc2ccc(C(F)(F)F)cc2)ccc1Oc1cccc(Cl)c1` [Example 116, N-[4-(3-Chlorophenoxy)-3-sulfamoylphenyl]-2-[4-(trifluoromethyl)phenyl]acetamide], for which the Emax on P2X4 [1] (setting [4]) is 87%; on P2X4 [2] (setting [5]), 72%.

`NS(=O)(=O)c1cc(NC(=O)Cc2cccc(C(F)(F)F)c2Cl)ccc1Oc1cccc(Cl)c1` [Example 107, N-[4-(3-Chlorophenoxy)-3-sulfamoylphenyl]-2-[2-chloro-3-(trifluoromethyl)phenyl]acetamide]: the concentration for half-maximal inhibition (IC50) at P2X4 [1] (setting [3]) amounted to 0.201 µM; on P2X4 [2] (setting [5]) it was 0.901 µM. Moreover, the Emax on P2X4 [1] (setting [4]) worked out at 86%; at P2X4 [2] (setting [5]) it was 64%.

Take `NS(=O)(=O)c1cc(NC(=O)Cc2ccccc2Cl)ccc1Oc1cnc(Cl)nc1` [Example 079]: the Emax at P2X4 [1] (setting [4]) was determined as 54%; on P2X4 [2] (setting [5]), 40%.
